Data on five molecules can be found in US20030175848A1, “Substituted dithiobisnitrobenzenes and their applications” (Institut Pasteur De Lille, priority 1998, published 2003).

Where two headings read alike, the source gives them in different places. Bounds are passed on as bounds.

Data set [1] concerns the target T1, thioredoxin reductase from Plasmodium falciparum (PfTrxR) (Plasmodium falciparum, UniProt Q25861).
T1 construct: made in house; host or cells: E. coli SG5 (glutathione reductase deficient)
T1 sequence (Q25861 1-541): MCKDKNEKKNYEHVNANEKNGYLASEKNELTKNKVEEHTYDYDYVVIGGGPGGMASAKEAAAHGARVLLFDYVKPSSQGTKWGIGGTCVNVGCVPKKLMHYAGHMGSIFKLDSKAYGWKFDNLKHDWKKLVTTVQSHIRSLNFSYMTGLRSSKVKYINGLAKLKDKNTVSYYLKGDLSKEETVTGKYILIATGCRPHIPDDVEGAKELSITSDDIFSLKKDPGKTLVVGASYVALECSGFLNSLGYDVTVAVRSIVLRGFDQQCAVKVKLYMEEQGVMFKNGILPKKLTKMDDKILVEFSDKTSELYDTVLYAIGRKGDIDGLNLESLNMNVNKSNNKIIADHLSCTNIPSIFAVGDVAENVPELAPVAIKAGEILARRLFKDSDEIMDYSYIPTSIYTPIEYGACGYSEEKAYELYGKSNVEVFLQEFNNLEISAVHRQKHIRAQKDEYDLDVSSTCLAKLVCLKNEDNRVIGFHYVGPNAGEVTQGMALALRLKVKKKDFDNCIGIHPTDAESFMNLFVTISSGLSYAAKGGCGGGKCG
Kind of data set: Kinetic parameters of substrates with recombinant PfTrxR. It is filed as biochemical. Particulars: substrate of recombinant PfTrxR; 25° C., buffer A pH 7.25, 0.2 mM NADPH. The procedure: […] Using the DTNB test, one TrxR unit is defined as the NADPH-dependent production of […] of 5-thio-2-nitrobenzoate (ε412 nm=13.6 mM^−1.cm^−1). The TrxR concentrations are determined by measuring subunits containing FAD at 450 nm (ε=11.3 mM^−1.cm^−1).

The target in data set [2] is T2, trypanothione reductase from Trypanosoma cruzi (TcTR) (Trypanosoma cruzi, UniProt P28593). Kind of data set: Kinetic parameters of substrates with recombinant trypanothione reductase.
T2 sequence (P28593 whole entry): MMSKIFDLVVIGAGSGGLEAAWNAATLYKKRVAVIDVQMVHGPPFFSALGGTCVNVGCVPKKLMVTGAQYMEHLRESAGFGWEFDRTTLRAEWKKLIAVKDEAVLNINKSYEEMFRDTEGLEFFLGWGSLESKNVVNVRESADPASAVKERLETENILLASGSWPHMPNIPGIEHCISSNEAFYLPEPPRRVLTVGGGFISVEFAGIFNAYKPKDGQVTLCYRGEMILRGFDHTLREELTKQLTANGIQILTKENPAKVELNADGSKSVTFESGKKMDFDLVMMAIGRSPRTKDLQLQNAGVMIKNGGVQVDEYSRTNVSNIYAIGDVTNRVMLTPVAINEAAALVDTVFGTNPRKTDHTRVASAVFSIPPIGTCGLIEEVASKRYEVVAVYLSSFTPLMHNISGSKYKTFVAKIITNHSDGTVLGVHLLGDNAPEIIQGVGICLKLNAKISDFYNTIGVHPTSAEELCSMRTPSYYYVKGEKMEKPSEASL
Experimental: The TcTR concentration is determined by measuring the number of subunits containing FAD at 461 nm (ε=11.3 mM^−1×cm^−1); the enzymatic activity is tested as specified in (28). One TR unit corresponds to 1 μmol of T(S)2 reduced per minute at 25° C. in a buffer A (20 mM Hepes, pH 7.25 containing 1 mM EDTA and 0.15 M KCl).
The enzyme stock solutions used for the kinetic determinations are pure (verification in SDS-PAGE) and have a specific activity of 137 U/mg in the T(S)2 reduction test performed in the presence of 500 μM NADPH and 518 μM T(S)2 in a buffer A.
All the kinetic studies are carried out in the same buffer at 25° C., in the presence of 200 μM of NADPH.
All the tests were carried out at 25° C. in 20 mM HEPES, 1 Mm EDTA, 150 mM KCl, at pH 7.25 (buffer A) and in the presence of 0.2 mM NADPH.
The target in data set [3] is T3, human thioredoxin reductase (hTrxR) (Homo sapiens, UniProt Q16881).
T3 construct: U of native hTrxR; from tissue; host or cells: human placenta
T3 sequence (Q16881 151-649 limits assumed): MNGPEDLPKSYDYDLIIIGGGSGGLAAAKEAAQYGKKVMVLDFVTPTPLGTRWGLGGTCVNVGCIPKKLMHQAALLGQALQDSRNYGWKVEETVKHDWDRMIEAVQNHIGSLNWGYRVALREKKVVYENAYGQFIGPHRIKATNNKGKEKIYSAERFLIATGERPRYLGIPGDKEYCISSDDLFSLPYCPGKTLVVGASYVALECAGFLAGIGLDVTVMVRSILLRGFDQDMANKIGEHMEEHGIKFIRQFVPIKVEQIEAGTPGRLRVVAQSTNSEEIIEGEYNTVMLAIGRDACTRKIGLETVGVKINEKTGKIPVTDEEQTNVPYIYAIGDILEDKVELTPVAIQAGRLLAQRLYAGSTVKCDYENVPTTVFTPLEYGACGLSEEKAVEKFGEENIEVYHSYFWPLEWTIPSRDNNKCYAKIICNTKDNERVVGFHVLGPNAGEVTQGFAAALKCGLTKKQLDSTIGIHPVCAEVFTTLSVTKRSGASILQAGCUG
Kind of data set: Kinetic parameters of substrates with native hTrxR (placenta). It counts as biochemical. The following applies: substrate of native hTrxR (placenta), 25° C., buffer A pH 7.25, 0.2 mM NADPH. The method, then: The human thioredoxin reductase (hTrxR) is purified from placenta as specified in J. E. Oblong et al., Biochemistry, 1993, 32, 7271-7277.
The enzyme is added to a reaction mixture comprising 100 mM potassium phosphate, 2 mM EDTA, pH 7.4 and 3 mM DTNB; after the addition of 200 μM NADPH, the increase in the absorbence is measured at 412 nm and at 25° C. Using the DTNB test, one TrxR unit is defined as the NADPH-dependent production of […] of 5-thio-2-nitrobenzoate (ε412 nm=13.6 mM^−1.cm^−1). The TrxR concentrations are determined by measuring subunits containing FAD at 450 nm (ε=11.3 mM^−1.cm^−1).

In data set [4] the target is T2, trypanothione reductase from Trypanosoma cruzi (TcTR). Further details: made in house; host or cells: Escherichia coli SG5 carrying pIBITczTR. The following applies: cited from earlier work.
Data set [5] concerns the target T4, Native hTrxR (lung adenocarcinoma cells) (Homo sapiens, UniProt Q16881).
T4 construct: host or cells: human lung adenocarcinoma cells (endogenous enzyme, purified)
T4 sequence (Q16881 151-649 limits assumed): T3 sequence (Q16881 151-649 limits assumed)
The following applies: substrate of native hTrxR (lung adenocarcinoma cells); reference [22]; cited from earlier work.

Data set [6] deals with T3, human thioredoxin reductase (hTrxR). Particulars: substrate of native hTrxR (placenta), cited from earlier work; for Km: references [29], [38].
Data set [7] addresses T1, thioredoxin reductase from Plasmodium falciparum (PfTrxR). The following applies: cited from earlier work.
[8] abbreviates: substrate of recombinant TcTR, reference [1].
[9] abbreviates: substrate of recombinant PfTrxR, reference [26].

In general, Km refers to the substrate concentration at which the rate is half of its maximum.

Turning to `CN1CCN(C(=O)c2cc(SSc3ccc([N+](=O)[O-])c(C(=O)N4CCN(C)CC4)c3)ccc2[N+](=O)[O-])CC1` [Compound 3], the results for the Kcat in data set [1] and in data set [3] were 6 s⁻¹ and 38 s⁻¹, respectively. Moreover, in data set [2] (recombinant TcTR, 25° C., buffer A, 0.2 mM NADPH), the “suitable as substrate (words spread over the Km, Kcat and Kcat/Km cells)” value is “Not”. Besides, the Km in data set [3] (read-out: Km) is 10 µM.
As for `N[C@@H](CCC(=O)N[C@H]1CSSC[C@H](NC(=O)CC[C@H](N)C(=O)O)C(=O)NCC(=O)NCCCNCCCCNC(=O)CNC1=O)C(=O)O` [TS2, oxidized N^1, N^8-bis(glutathionyl)-spermidine], in data set [4] (setting [8]), the Kcat is 240 s⁻¹ and the Km was 45 µM.
For the molecule “E. coli Trx: thioredoxin (Trx) of E. coli, substrate of thioredoxin reductase”, the Kcat was 5.6 s⁻¹ in data set [5] and more than 5 s⁻¹ in data set [7] (setting [9]). Moreover, the Km in data set [5] was 34 µM; in data set [6], 20 µM; in data set [7] (setting [9]) it was 66 µM.
Turning to `CN(C)CCCNC(=O)c1cc(SSc2ccc([N+](=O)[O-])c(C(=O)NCCCN(C)C)c2)ccc1[N+](=O)[O-]` [Compound 1], in data set [2] (substrate for TR), the “reduction of Km compared with trypanothione disulphide” value is 30%. In addition, the Km in data set [3] came to 7 µM.
As to `O=C(O)c1cc(SSc2ccc([N+](=O)[O-])c(C(=O)O)c2)ccc1[N+](=O)[O-]` [DTNB, 5,5′-dithiobis(2-nitrobenzoic) acid], in data set [4] (recombinant TcTR, reference [13]), the “suitable as substrate (words spread over the Km, Kcat and Kcat/Km cells)” value is “Not”. Further, the results for the Kcat in data set [6] (reference [38]) and in data set [7] (setting [9]) were 67 s⁻¹ and 7 s⁻¹, respectively. In addition, the Michaelis constant (Km) in data set [6] was 400 µM; in data set [7] (substrate of PfTrxR, stated in text) it was approximately 1000 µM; in data set [7] (setting [9]), 1090 µM.
